Experimental data reported in ChEMBL document CHEMBL3885861, “Open TG-GATES”.

Species on record: Rattus norvegicus
Experiment: Open TG-GATES - Regimen: Daily Repeat
Format: toxicity, organism-based, Sprague-Dawley
Parameters: regimen Daily Repeat, gender Male, age 6 weeks
Conditions: in vivo, po, 300 mg/kg, route gavage, dose level Middle; for APTT / Bas / Eos / Fbg / Hb / Ht / Lym / MCH / MCHC / MCV / Mono / Neu / PT / Plat / RBC / Ret / WBC: tissue Blood
[1] = 72 h, tissue Kidney, time 3 day
[2] = 72 h, tissue Plasma, time 3 day

SMILES: CC[C@@H](CO)NCCN[C@@H](CC)CO [ETHAMBUTOL]
- TERMINAL_BW (72 h, time 3 day): 239.4 g
- APTT (72 h, time 3 day): 21.6 s
- Bas (72 h, time 3 day): 0%
- Eos (72 h, time 3 day): 1%
- Fbg (72 h, time 3 day): 330.2 mg/dL
- Hb (72 h, time 3 day): 13.7 g/dL
- Ht (72 h, time 3 day): 40%
- Lym (72 h, time 3 day): 75%
- MCH (72 h, time 3 day): 21.8 pg
- MCHC (72 h, time 3 day): 34.3%
- MCV (72 h, time 3 day): 63.4 fL
- Mono (72 h, time 3 day): 3%
- Neu (72 h, time 3 day): 19.4%
- PT (72 h, time 3 day): 15.9 s
- Plat (72 h, time 3 day): 113.3 x10_4/uL
- RBC (72 h, time 3 day): 630 x10_4/ul
- Ret (72 h, time 3 day): 6.3%
- WBC (72 h, time 3 day): 92.4 x10_2/uL
- KIDNEY_L [1]: 1 g
- KIDNEY_R [1]: 1.1 g
- KIDNEY_TOTAL [1]: 2.1 g
- LIVER (72 h, tissue Liver, time 3 day): 12.5 g
- A/G [2]: 1.3
- ALP [2]: 1720.4 IU/L
- ALT [2]: 43 IU/L
- AST [2]: 71 IU/L
- BUN [2]: 17.6 mg/dL
- CRE [2]: 0.2 mg/dL
- Ca [2]: 10.7 mg/dL
- Cl [2]: 108 meq/L
- DBIL [2]: 0 mg/dL
- GLC [2]: 209.6 mg/dL
- IP [2]: 7.6 mg/dL
- K [2]: 3.9 meq/L
- LDH [2]: 164.2 IU/L
- Na [2]: 140.8 meq/L
- PL [2]: 163.4 mg/dL
- RALB [2]: 3.2 g/dL
- TBIL [2]: 0.01 mg/dL
- TC [2]: 90.2 mg/dL
- TG [2]: 87.6 mg/dL
- TP [2]: 5.7 g/dL
- gamma-GTP [2]: 1.4 IU/L
- TERMINAL_BW ([…], time 7 day): 262.8 g
- TERMINAL_BW ([…], time 14 day): 299.9 g
- TERMINAL_BW ([…], time 28 day): 296 g
- APTT ([…], time 7 day): 20.8 s
- Bas ([…], time 7 day): 0%
- Eos ([…], time 7 day): 0.8%
- Fbg ([…], time 7 day): 303.8 mg/dL
- Hb ([…], time 7 day): 14.2 g/dL
- Ht ([…], time 7 day): 41.4%
- Lym ([…], time 7 day): 82.2%
- MCH ([…], time 7 day): 20.7 pg
- MCHC ([…], time 7 day): 34.3%
- MCV ([…], time 7 day): 60.2 fL
- Mono ([…], time 7 day): 2.4%
- Neu ([…], time 7 day): 13%
- PT ([…], time 7 day): 16.4 s
- Plat ([…], time 7 day): 113.9 x10_4/uL
- RBC ([…], time 7 day): 688.8 x10_4/ul
- Ret ([…], time 7 day): 4.2%
- WBC ([…], time 7 day): 98.6 x10_2/uL
- APTT ([…], time 14 day): 20.4 s
- Bas ([…], time 14 day): 0%
- Eos ([…], time 14 day): 1%
- Fbg ([…], time 14 day): 274.2 mg/dL
- Hb ([…], time 14 day): 14.2 g/dL
- Ht ([…], time 14 day): 42.3%
- Lym ([…], time 14 day): 82.2%
- MCH ([…], time 14 day): 19.2 pg
- MCHC ([…], time 14 day): 33.7%
- MCV ([…], time 14 day): 57 fL
- Mono ([…], time 14 day): 2.4%
- Neu ([…], time 14 day): 13.2%
- PT ([…], time 14 day): 16.8 s
- Plat ([…], time 14 day): 86.9 x10_4/uL
- RBC ([…], time 14 day): 742.8 x10_4/ul
- Ret ([…], time 14 day): 2.3%
- WBC ([…], time 14 day): 118.5 x10_2/uL
- APTT ([…], time 28 day): 21.4 s
- Bas ([…], time 28 day): 0%
- Eos ([…], time 28 day): 1.2%
- Fbg ([…], time 28 day): 257.5 mg/dL
- Hb ([…], time 28 day): 14.6 g/dL
- Ht ([…], time 28 day): 42.3%
